{"source": "paper PMC4893628", "about": "“Chalcone-based Selective Inhibitors of a C4 Plant Key Enzyme as Novel Potential Herbicides” (Scientific Reports, 2016)", "key": {"Bacillus subtilis 168": {"system": "Bacillus subtilis 168", "experiment": "Bacterial growth in microscale cultivation, B. subtilis", "assay_type": "cell-based", "settings": "relative to control", "method_in_brief": "(§1)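 Inhibitors in DMSO were added to the medium, at a maximum of 400 μM for trans-chalcone and 100 μM for 2'-hydroxychalcone. Cultures were seeded at OD600 0.5, or 0.25 for B. subtilis, and growth was followed as 620 nm backscatter in a BioLector at 1200 rpm. Final backscatter, growth rate and lag phase were compared with DMSO controls.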"}, "F. trinervia PEPC": {"biological_target": "T1, F. trinervia PEPC (Flaveria trinervia, UniProt P30694)", "T1 construct": "the full-length ppcA gene of PEPC from F. trinervia (EMBL-Bank X61304); made in house; host or cells: Escherichia coli BL21(DE3)", "T1 sequence (P30694 1-966)": "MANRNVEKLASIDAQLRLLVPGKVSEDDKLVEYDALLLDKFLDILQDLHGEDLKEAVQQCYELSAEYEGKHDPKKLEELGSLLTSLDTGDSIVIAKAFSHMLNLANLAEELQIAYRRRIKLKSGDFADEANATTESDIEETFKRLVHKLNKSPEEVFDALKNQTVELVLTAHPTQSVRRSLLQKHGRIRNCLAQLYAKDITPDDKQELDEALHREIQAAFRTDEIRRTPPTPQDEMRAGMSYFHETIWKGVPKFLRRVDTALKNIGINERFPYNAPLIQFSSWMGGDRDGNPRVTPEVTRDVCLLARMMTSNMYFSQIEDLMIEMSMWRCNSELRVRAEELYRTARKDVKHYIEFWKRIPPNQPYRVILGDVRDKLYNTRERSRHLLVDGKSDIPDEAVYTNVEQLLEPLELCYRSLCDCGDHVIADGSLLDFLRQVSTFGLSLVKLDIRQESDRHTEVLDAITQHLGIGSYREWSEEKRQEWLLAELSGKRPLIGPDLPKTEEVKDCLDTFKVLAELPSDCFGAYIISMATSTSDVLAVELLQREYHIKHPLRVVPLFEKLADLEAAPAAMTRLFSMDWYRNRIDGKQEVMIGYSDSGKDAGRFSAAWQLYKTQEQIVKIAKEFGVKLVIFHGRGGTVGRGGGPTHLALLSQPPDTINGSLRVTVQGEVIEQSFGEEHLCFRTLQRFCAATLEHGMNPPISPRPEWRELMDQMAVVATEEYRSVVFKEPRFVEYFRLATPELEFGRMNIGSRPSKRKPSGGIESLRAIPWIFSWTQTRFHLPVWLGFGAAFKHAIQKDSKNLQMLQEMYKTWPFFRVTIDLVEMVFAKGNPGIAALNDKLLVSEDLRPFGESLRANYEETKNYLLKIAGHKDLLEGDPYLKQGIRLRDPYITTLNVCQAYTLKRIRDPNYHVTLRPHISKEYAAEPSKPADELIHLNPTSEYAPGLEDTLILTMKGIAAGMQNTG", "experiment": "biochemical", "assay_type": "biochemical"}, "[1]": {"system": "Corynebacterium glutamicum ATCC13032", "experiment": "Bacterial growth in microscale cultivation, C. glutamicum", "assay_type": "cell-based", "settings": "relative to control; for activity at 4 µM / activity at 40 µM / activity at 400 µM: Corynebacterium glutamicum", "method_in_brief": "as §1"}}, "note": "Read-outs that look alike come from different tables or passages of the source.", "data": [{"smiles": "O=C(/C=C/c1ccc(O)cc1)c1ccc(O)cc1O", "note": "[Compound 6, 2′,4′,4-Trihydroxychalcone]", "values": [{"measurement": "activity at 4 µM", "setting": "Bacillus subtilis 168; Bacillus subtilis, 168, complex medium, 4 µM, read-out: Final Backscatter", "result": 97.3, "unit": "%"}, {"measurement": "activity at 4 µM", "setting": "Bacillus subtilis 168; Bacillus subtilis, 168, complex medium, 4 µM, read-out: Growth rate", "result": 107, "unit": "%"}, {"measurement": "activity at 40 µM", "setting": "Bacillus subtilis 168; Bacillus subtilis, 168, complex medium, 40 µM, read-out: Final Backscatter", "result": 99.9, "unit": "%"}, {"measurement": "activity at 40 µM", "setting": "Bacillus subtilis 168; Bacillus subtilis, 168, complex medium, 40 µM, read-out: Growth rate", "result": 107, "unit": "%"}, {"measurement": "activity at 400 µM", "setting": "Bacillus subtilis 168; Bacillus subtilis, 168, complex medium, 400 µM, read-out: Final Backscatter", "result": 91.1, "unit": "%"}, {"measurement": "activity at 400 µM", "setting": "Bacillus subtilis 168; Bacillus subtilis, 168, complex medium, 400 µM, read-out: Growth rate", "result": 109, "unit": "%"}, {"measurement": "activity at 4 µM", "setting": "Bacillus subtilis 168; Bacillus subtilis, 168, minimal medium, 4 µM, read-out: Final Backscatter", "result": 100, "unit": "%"}, {"measurement": "activity at 4 µM", "setting": "Bacillus subtilis 168; Bacillus subtilis, 168, minimal medium, 4 µM, read-out: Growth rate", "result": 103, "unit": "%"}, {"measurement": "activity at 40 µM", "setting": "Bacillus subtilis 168; Bacillus subtilis, 168, minimal medium, 40 µM, read-out: Final Backscatter", "result": 99.7, "unit": "%"}, {"measurement": "activity at 40 µM", "setting": "Bacillus subtilis 168; Bacillus subtilis, 168, minimal medium, 40 µM, read-out: Growth rate", "result": 99, "unit": "%"}, {"measurement": "activity at 400 µM", "setting": "Bacillus subtilis 168; Bacillus subtilis, 168, minimal medium, 400 µM, read-out: Final Backscatter", "result": 101, "unit": "%"}, {"measurement": "activity at 400 µM", "setting": "Bacillus subtilis 168; Bacillus subtilis, 168, minimal medium, 400 µM, read-out: Growth rate", "result": 88.2, "unit": "%"}, {"measurement": "Lag Phase", "setting": "Bacillus subtilis 168; complex medium, 4 µM", "result": "100,0%"}, {"measurement": "Lag Phase", "setting": "Bacillus subtilis 168; complex medium, 40 µM", "result": "102,6%"}, {"measurement": "Lag Phase", "setting": "Bacillus subtilis 168; complex medium, 400 µM", "result": "128,1%"}, {"measurement": "Lag Phase", "setting": "Bacillus subtilis 168; minimal medium, 4 µM", "result": "98,9%"}, {"measurement": "Lag Phase", "setting": "Bacillus subtilis 168; minimal medium, 40 µM", "result": "102,2%"}, {"measurement": "Lag Phase", "setting": "Bacillus subtilis 168; minimal medium, 400 µM", "result": "116,3%"}, {"measurement": "Selectivity C4/C3", "setting": "F. trinervia PEPC; C4 PEPC over C3 isoform", "result": 1.5, "unit": "fold"}, {"measurement": "IC50", "setting": "F. trinervia PEPC; IC50 F. trinervia PEPC, C4 PEPC", "result": "38.2 ± 10.9", "unit": "µM"}, {"measurement": "activity at 4 µM", "setting": "[1]; ATCC13032, complex medium, 4 µM, read-out: Final Backscatter", "result": 99.8, "unit": "%"}, {"measurement": "activity at 4 µM", "setting": "[1]; ATCC13032, complex medium, 4 µM, read-out: Growth rate", "result": 99.5, "unit": "%"}, {"measurement": "activity at 40 µM", "setting": "[1]; ATCC13032, complex medium, 40 µM, read-out: Final Backscatter", "result": 98.2, "unit": "%"}, {"measurement": "activity at 40 µM", "setting": "[1]; ATCC13032, complex medium, 40 µM, read-out: Growth rate", "result": 101, "unit": "%"}, {"measurement": "activity at 400 µM", "setting": "[1]; ATCC13032, complex medium, 400 µM, read-out: Final Backscatter", "result": 97.7, "unit": "%"}, {"measurement": "activity at 400 µM", "setting": "[1]; ATCC13032, complex medium, 400 µM, read-out: Growth rate", "result": 79.8, "unit": "%"}, {"measurement": "activity at 4 µM", "setting": "[1]; ATCC13032, minimal medium, 4 µM, read-out: Final Backscatter", "result": 100, "unit": "%"}, {"measurement": "activity at 4 µM", "setting": "[1]; ATCC13032, minimal medium, 4 µM, read-out: Growth rate", "result": 101, "unit": "%"}, {"measurement": "activity at 40 µM", "setting": "[1]; ATCC13032, minimal medium, 40 µM, read-out: Final Backscatter", "result": 101, "unit": "%"}, {"measurement": "activity at 40 µM", "setting": "[1]; ATCC13032, minimal medium, 40 µM, read-out: Growth rate", "result": 97.7, "unit": "%"}, {"measurement": "activity at 400 µM", "setting": "[1]; ATCC13032, minimal medium, 400 µM, read-out: Final Backscatter", "result": 101, "unit": "%"}, {"measurement": "activity at 400 µM", "setting": "[1]; ATCC13032, minimal medium, 400 µM, read-out: Growth rate", "result": 80.5, "unit": "%"}, {"measurement": "Lag Phase", "setting": "[1]; complex medium, 4 µM", "result": "99,3%"}, {"measurement": "Lag Phase", "setting": "[1]; complex medium, 40 µM", "result": "101,3%"}, {"measurement": "Lag Phase", "setting": "[1]; complex medium, 400 µM", "result": "105,3%"}, {"measurement": "Lag Phase", "setting": "[1]; minimal medium, 4 µM", "result": "98,5%"}, {"measurement": "Lag Phase", "setting": "[1]; minimal medium, 40 µM", "result": "101,5%"}, {"measurement": "Lag Phase", "setting": "[1]; minimal medium, 400 µM", "result": "127,6%"}]}]}
